Patent publication US4596710A, “Gallium chloride as a new anti-cancerous drug” (priority 1981, dated 1986)

Key:
[1] = Acute toxicity on the mouse; format: in vivo; conditions: per os
[2] = Clinical, renal and biological tolerance in bitches; format: in vivo, female dogs
Procedure: (§1) The anti-tumoral effect of gallium chloride was firstly studied in female dogs having spontaneous malignant tumours of the breast. Gallium chloride therapy was carried out in bitches having a mammary cancer (tubulo-pillaryadenocarcinoma or mixed-type tumour); treatment started either at the stage of the primary tumour (4 bitches) or upon a recurrence after a surgical excision (10 bitches).
(§2) In the third case, the treatment could be continued for more than six months in a very old bitch of 14 years.
Posology of gallium chloride, per os: 7.5 mg/kg from 15.4.1981 to 14.9.1981, then 10 mg/kg.

[3] = system: bilateral cystadenocarcinoma of the ovary; assay: 1st patient: gallium chloride treatment, tumour response; format: in vivo, human
Procedure: Mrs. […] An epiploic and ganglionary invasion was discovered. Cobalt therapy was then carried out from Nov. 5th, 1979 to Feb. […] Treatment by gallium chloride started on Nov. […] An echotomograph on Dec. […] A third echotomograph was made on Jan. […] However, this was refused by the patient. On Mar.

malignant melanoma = assay: 3rd patient: gallium chloride treatment, tumour response; format: in vivo, human
Excerpt: On Sept. […] This was the case. . . […] Up to Nov. […] It was from Sept.

[4] = system: mammary cancer (tubulo-pillaryadenocarcinoma or mixed-type tumour); assay: Gallium chloride therapy in bitches with mammary cancer (primary tumour or recurrence); format: in vivo, female dogs
Procedure: as §1
(1) In the 4 bitches treated at the primary tumour stage, the following was observed:
In two cases, the treatment was continued for two months, the tumour reducing from 10×7 cm to 8.5×7 cm in one case and from 1.5×1.3 to 1.5×1.0 cm in the other case.
as §2
(2) In the 10 bitches treated at the recurrence stage, the following was observed: […]

In the case of `[Cl][Ga]([Cl])[Cl]` [gallium chloride], the LD50 [1] is reported as 1790 mg/kg, the “clinical and biological tolerance, bitches overall” value ([2]; 5 mg/kg) is reported as “excellent” and the “clinical and renal tolerance, first bitch (OUD)” value ([2]; 7.5 mg/kg then 10 mg/kg per os) is reported as “perfect”. The “clinical and renal tolerance, second bitch (BEL)” value ([2]; 2.5, 5, then 7 mg/kg per os) was “perfect”, the “dyspnoea leading to stop of treatment” value ([2]; dog, in vivo, 5 mg/kg) was “treatment was stopped for one month due to a dyspnoea” and the “tolerance, bitches” value ([2]; oral, drinkable ampoules, first bitches 1 mg/kg, particularly digestive) was “tolerance proved to be good, particularly from the digestive point of view”. For the same compound, the “clinical state, end of January 1981” value ([3]; 300 mg per day per os) was “very satisfactory”, the “superficial palpable mass, end of January 1981” value ([3]; 300 mg per day per os) was “had disappeared” and the “volume of the mass of the Douglas pouch, echotomograph Jan. 7th, 1981” value ([3]; 300 mg per day per os) was “clearly decreased”. The “mass of the Douglas pouch, echotomograph Dec. 9th, 1980” value ([3]; 300 mg per day per os from Nov. 1st, 1980, 3.5 cm on Oct. 27th) was “maintained the same diameter”, the “superficial mass / tissue of infiltration, echotomograph Dec. 9th, 1980” value ([3]; 300 mg per day per os, 4.4 by 3 cm before treatment) was “the tissue of infiltration had become a sclerous tissue” and the “death, 1st patient” value ([3]; after interruption of gallium chloride) was “death occurred on May 6th, 1981”. The “general state up to Sept. 20th, 1981, 3rd patient” value (malignant melanoma; 600 mg/24 hours with Calciparin) was “satisfactory, with a good appetite”, the “general state / metastases after Calciparin interruption, 3rd patient” value (malignant melanoma; gallium chloride increased to 800 mg/24 hours from Sept. 29th, 1981) was “general state rapidly worsened, with appearance of a metastatic hepatomegaly of which the volume increased rapidly” and the “results in mammary tumours in the bitch” value ([4]; 5 mg/kg, if duration of treatment extended) was “good results”. For the same compound, the “regression of the tumour, overall” value ([4]; 5 mg/kg, tumour becomes very hard) was “Regression of the tumour remains weak”, the “regression of the tumour (primary tumour stage)” value ([4]; 4 bitches treated at primary tumour stage) was “a regression of the tumour in the other three cases” and the “death (primary tumour stage)” value ([4]; 4 bitches treated at primary tumour stage, 1 to 5 mg/kg oral) was “one death on the 7th day”. For the same compound, the complete remission ([4]; 10 bitches at recurrence stage, recurrent tumour smaller than 0.6 cm at beginning, two months of treatment) was “three complete remissions after two months of treatment”, the “partial regression of the tumour” value ([4]; 10 bitches at recurrence stage, three months of treatment) was “in 5 bitches, a partial regression of the tumour with hardening thereof” and the “death (recurrence stage)” value ([4]; 10 bitches treated at recurrence stage) was “one death in the third week of treatment, due to a pulmonary metastasis”. For the same compound, the “biopsies / histology at the end of the treatment” value ([4]; recurrence stage) was “tumoral cells persisted, but a histological study suggested an increase in the amorphous ground substance with a cellular rarefaction”, the “tumour growth in one bitch” value ([4]; recurrence stage, 1 mg/kg one month, 2.5 mg/kg fifteen days, 5 mg/kg last fifteen days) was “persistent growth of the tumour in one bitch” and the survival ([4]; therapeutic strategy with surgical treatment after gallium chloride) was “seven out of eight bitches are alive”. The “tumour response after resumption of the treatment” value ([4]; third case, bitch of 14 years, 2.5 mg/kg, then 1 mg/kg) was “regressed after resumption of the treatment” and the “tumour development during first two months of treatment” value ([4]; third case, bitch of 14 years, 5 mg/kg, tumour 3.6×2 cm, doubled in four months preceding treatment) was “did not develop”.
